According to ChEMBL document CHEMBL1201862, “PubChem BioAssay data set” (2004):
Active and inactive are the calls of the source. Cut-off read from the data, not from the text of the source, for most assays here: actives have a measured IC50 and inactives only a lower limit.

Tests used:
[1] = biological target: T1, Apoptotic protease-activating factor 1 (Homo sapiens, UniProt O14727); type: functional
T1 sequence (O14727 whole entry): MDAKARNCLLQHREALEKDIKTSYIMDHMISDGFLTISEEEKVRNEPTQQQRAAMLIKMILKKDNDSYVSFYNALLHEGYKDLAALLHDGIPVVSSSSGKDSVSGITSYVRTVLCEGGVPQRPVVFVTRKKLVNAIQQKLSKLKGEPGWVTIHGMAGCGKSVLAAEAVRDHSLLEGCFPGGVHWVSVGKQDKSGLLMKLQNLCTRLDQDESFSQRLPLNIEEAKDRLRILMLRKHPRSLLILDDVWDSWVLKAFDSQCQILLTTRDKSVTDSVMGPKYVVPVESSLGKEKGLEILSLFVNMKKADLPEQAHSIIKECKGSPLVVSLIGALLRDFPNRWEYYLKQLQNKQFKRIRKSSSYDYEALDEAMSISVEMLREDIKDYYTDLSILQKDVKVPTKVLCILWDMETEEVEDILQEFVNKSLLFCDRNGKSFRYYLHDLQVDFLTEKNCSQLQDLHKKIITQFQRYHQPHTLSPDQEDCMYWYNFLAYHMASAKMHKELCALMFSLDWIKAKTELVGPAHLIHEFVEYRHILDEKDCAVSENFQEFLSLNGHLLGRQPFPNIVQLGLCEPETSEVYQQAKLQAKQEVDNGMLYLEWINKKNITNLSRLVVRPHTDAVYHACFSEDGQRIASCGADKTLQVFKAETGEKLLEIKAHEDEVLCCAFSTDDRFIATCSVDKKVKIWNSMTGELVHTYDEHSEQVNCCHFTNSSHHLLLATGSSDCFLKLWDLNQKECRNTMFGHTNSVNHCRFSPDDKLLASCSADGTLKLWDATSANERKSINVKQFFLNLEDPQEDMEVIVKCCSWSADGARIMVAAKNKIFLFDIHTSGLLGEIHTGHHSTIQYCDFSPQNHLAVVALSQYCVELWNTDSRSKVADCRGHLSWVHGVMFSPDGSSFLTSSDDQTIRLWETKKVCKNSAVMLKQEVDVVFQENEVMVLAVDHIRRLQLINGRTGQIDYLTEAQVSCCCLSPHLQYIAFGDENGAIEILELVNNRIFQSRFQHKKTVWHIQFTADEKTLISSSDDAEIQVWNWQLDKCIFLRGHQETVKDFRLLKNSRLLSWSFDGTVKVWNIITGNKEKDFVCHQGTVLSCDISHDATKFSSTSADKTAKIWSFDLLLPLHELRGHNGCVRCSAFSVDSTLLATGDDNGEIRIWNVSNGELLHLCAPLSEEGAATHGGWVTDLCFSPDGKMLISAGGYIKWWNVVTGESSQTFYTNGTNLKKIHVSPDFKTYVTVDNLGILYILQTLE

[2] = biological target: T2, Ubiquitin-conjugating enzyme E2 N (Homo sapiens, UniProt P61088); type: functional
T2 sequence (P61088 whole entry): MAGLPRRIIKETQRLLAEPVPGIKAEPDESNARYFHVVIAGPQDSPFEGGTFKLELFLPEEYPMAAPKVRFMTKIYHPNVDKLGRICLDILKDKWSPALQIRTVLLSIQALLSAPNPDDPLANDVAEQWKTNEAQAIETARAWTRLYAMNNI

[3] = biological target: T3, Rac GTPase-activating protein 1 (Homo sapiens, UniProt Q9H0H5); assay: blockers of MgcRacGAP-driven Rac1 GTP hydrolysis – biochemical, ADP Hunter fluorescence, primary and confirmatory, confirmation (AID 624330); type: functional
T3 sequence (Q9H0H5 whole entry): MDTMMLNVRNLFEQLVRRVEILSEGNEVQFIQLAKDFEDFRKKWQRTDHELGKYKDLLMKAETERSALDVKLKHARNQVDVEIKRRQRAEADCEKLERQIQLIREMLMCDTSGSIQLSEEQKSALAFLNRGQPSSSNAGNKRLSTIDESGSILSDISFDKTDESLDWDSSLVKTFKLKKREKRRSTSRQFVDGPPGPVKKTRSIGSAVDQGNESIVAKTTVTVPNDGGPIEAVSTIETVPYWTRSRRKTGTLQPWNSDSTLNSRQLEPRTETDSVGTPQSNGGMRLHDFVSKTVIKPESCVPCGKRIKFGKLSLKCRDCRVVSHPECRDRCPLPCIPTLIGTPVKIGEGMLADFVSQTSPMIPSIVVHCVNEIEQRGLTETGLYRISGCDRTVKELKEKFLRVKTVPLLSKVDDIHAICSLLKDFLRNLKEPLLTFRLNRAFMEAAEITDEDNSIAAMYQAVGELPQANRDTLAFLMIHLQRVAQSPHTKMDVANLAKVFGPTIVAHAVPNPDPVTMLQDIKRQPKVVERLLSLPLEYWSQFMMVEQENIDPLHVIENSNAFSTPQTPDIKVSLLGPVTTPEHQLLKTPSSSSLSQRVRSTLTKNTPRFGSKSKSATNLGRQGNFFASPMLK

[4] = biological target: T2, Ubiquitin-conjugating enzyme E2 N; type: functional; remark: listed apart in the source
[5] = biological target: T4, DNA repair and recombination protein RAD54-like (Homo sapiens, UniProt Q92698); assay: RAD54 Holliday junction migration blockers – biochemical, fluorescence, cherry-picked samples, dose series, confirmation (AID 651657); type: functional
T4 sequence (Q92698 whole entry): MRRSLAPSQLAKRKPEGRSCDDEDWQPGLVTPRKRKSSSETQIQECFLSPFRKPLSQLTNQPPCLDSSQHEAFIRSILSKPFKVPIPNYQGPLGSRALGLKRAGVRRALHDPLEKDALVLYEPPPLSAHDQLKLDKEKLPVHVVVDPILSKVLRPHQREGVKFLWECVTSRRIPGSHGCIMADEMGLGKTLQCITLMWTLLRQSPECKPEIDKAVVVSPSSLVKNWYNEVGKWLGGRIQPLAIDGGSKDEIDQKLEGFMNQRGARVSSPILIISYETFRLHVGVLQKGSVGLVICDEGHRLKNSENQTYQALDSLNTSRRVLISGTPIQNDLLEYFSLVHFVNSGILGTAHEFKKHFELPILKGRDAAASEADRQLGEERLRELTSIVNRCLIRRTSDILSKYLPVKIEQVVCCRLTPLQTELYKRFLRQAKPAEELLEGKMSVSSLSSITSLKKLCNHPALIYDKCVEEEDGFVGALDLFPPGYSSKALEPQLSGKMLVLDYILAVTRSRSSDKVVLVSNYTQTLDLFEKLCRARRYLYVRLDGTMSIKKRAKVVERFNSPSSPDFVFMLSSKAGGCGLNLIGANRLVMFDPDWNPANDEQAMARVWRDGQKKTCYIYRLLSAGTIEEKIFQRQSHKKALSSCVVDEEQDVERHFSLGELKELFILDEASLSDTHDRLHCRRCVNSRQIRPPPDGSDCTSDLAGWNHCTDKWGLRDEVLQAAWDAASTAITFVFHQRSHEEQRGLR

[6] = biological target: Beta-2 adrenergic receptor (Homo sapiens, UniProt P07550); assay: ADRB2 activation measured by internalization – cell-based, FAP fluorogen, flow cytometry, cherry pick 1, dose response (AID 588763); type: functional
Beta-2 adrenergic receptor, sequence (P07550 whole entry): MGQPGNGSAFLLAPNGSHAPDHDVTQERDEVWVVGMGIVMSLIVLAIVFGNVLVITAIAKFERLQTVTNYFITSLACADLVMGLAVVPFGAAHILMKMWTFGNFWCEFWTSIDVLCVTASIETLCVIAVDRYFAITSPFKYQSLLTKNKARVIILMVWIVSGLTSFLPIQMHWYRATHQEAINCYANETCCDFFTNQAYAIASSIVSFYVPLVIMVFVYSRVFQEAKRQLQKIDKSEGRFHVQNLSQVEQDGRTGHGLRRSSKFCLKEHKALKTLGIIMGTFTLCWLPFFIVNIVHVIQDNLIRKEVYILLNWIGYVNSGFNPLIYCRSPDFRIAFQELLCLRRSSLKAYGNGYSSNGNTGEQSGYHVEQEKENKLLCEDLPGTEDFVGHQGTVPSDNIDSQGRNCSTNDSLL

[7] = biological target: T5, Bcl-2-related protein A1 (Mus musculus, UniProt Q07440); type: functional;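 note: confirmatory dose–response counterscreen on Bfl-1, used to check hits from a UBC13 polyubiquitin inhibitor campaign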
T5 sequence (Q07440 whole entry): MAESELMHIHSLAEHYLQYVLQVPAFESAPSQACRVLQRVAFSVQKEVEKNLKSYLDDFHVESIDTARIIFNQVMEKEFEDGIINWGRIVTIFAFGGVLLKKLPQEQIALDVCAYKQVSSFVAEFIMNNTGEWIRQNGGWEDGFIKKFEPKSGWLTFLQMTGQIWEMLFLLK

[8] = system: Vero; assay: cells; type: functional, cell-based; settings: Chlorocebus sabaeus
[9] = biological target: T6, Sentrin-specific protease 8 (Homo sapiens, UniProt Q96LD8); type: functional;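 note: luminescence read-out of SENP8 inhibition, dose-response confirmation following an ultra-high-throughput screen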
T6 sequence (Q96LD8 whole entry): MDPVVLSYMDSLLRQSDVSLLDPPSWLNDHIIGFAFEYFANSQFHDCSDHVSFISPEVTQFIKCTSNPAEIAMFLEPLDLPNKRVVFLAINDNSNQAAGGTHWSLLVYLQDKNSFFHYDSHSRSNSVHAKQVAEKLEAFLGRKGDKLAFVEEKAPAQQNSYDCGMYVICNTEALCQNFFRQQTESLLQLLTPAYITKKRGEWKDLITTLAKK

[10] = biological target: T7, Sentrin-specific protease 6 (Homo sapiens, UniProt Q9GZR1); type: functional;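 note: Luminescence-based dose-response confirmatory assay of SENP6 inhibition, following up an ultra-high-throughput screen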
T7 sequence (Q9GZR1 whole entry): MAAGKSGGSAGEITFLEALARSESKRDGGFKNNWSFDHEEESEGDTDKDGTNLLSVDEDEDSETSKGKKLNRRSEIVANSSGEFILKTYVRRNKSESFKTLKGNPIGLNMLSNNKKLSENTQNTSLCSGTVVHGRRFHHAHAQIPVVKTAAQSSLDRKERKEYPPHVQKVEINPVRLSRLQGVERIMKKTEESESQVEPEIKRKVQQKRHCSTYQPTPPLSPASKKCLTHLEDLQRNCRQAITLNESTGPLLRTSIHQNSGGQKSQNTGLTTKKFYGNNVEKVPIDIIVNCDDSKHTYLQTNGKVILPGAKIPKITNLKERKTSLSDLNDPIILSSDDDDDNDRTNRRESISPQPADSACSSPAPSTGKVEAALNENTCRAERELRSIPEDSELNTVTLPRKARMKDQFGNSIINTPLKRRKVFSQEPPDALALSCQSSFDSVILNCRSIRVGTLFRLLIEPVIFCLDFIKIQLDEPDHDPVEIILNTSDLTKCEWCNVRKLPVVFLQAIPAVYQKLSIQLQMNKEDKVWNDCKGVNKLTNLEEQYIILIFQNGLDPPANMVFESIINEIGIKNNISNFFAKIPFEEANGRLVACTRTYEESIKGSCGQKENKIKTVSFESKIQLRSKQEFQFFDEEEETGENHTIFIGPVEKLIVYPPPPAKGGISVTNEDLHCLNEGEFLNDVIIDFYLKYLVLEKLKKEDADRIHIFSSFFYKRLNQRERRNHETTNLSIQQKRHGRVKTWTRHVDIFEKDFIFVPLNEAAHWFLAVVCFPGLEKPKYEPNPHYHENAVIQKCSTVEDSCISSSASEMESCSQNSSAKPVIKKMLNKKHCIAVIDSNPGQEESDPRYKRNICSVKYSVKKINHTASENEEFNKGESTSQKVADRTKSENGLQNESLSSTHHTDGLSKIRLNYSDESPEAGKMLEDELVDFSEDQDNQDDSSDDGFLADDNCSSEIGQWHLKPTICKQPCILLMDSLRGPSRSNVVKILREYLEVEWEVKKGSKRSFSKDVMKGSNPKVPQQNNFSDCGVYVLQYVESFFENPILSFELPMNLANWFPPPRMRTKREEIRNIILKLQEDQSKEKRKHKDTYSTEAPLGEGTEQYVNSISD

[11] = biological target: T8, Caspase-3 (Homo sapiens, UniProt P42574); type: functional;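 note: Dose-response selectivity test against caspase-3 for candidate inhibitors of sentrin-specific proteases (SENPs)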
T8 sequence (P42574 whole entry): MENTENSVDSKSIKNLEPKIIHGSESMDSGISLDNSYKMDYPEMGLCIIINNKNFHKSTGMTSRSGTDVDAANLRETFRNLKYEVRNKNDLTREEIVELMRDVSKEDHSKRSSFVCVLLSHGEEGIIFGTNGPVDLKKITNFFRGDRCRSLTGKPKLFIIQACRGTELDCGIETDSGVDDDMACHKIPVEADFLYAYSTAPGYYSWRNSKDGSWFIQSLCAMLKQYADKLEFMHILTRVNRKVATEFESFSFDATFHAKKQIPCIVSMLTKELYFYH

[12] = biological target: T9, Sentrin-specific protease 7 (Homo sapiens, UniProt Q9BQF6); type: functional;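 note: Luminescence-based dose-response confirmation of ultra-high-throughput screening hits, measuring inhibition of SENP7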
T9 sequence (Q9BQF6 whole entry): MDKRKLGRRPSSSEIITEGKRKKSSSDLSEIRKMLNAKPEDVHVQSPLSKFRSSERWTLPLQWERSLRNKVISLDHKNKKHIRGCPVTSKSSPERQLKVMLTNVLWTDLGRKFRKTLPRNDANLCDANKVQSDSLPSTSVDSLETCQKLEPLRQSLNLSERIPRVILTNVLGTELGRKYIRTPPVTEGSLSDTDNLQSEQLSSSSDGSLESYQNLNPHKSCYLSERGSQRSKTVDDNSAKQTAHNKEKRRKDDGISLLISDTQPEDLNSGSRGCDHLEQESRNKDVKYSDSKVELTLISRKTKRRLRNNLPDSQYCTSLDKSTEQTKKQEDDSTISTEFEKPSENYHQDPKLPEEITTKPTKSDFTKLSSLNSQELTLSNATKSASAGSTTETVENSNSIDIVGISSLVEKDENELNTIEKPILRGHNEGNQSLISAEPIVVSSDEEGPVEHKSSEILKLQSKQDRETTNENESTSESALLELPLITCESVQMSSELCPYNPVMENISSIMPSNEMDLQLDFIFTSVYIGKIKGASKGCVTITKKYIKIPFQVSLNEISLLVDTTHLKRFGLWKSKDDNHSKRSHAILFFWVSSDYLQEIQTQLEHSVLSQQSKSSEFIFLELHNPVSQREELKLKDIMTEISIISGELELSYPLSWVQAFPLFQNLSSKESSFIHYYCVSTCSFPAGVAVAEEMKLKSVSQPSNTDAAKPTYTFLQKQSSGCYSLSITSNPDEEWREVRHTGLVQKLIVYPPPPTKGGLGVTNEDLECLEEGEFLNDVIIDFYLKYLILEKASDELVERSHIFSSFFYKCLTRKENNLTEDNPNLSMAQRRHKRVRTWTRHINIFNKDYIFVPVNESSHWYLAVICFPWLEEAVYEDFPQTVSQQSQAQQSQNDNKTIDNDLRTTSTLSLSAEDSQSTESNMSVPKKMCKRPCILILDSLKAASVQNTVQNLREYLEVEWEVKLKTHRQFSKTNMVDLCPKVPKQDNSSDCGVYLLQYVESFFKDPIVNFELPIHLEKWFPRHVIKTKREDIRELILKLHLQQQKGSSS

Row | Structure (SMILES) | IC50 [1] | IC50 [2] | IC50 [3] | IC50 [4] | AC50 [5] | EC50 [6] | IC50 [7] | IC50 [8] | IC50 [9] | IC50 [10] | IC50 [11] | IC50 [12]
1 | COc1cc2nc(N3CCNCC3)nc(N)c2cc1OC | 31.5 µM (active) | 1.5 µM (active) | 63.1 µM (active) | 0.873 µM (active) | 1.49 µM (active) | 8.61 µM (inactive) | 11.1 µM (active) | 22.4 µM (active) | – | – | – | –
2 | O=C(CCc1ccccc1)c1ccc2c(c1)OCCCO2 | – | – | – | – | – | – | – | – | 27.3 µM (active) | 32.8 µM (active) | 28.9 µM (active) | 9.59 µM (active)
3 | Cc1cc(N/N=C/c2ccc3c(c2)OCO3)nc2ccccc12 | – | – | – | – | – | – | – | – | 21.9 µM (active) | 17.6 µM (active) | 27.6 µM (active) | 4.64 µM (active)
